These results are taken from US7534590B2, “Method for producing monatin” (AJINOMOTO Co., Inc., priority 2003, dated 2009).

SMILES strings stand for the structures. “Also recorded” adds a separate entry of the source.

Data set [1] can be described thus: stability in strongly acidic or strongly alkaline solution to be treated. The data set is classed as physicochemical. To be noted: for stability in strongly acidic solution: strongly acidic region. An excerpt: The value of pH in the solution to be treated may be 2 to 12, more preferably 7 to 11 and particularly preferably 8 to 9.
When the solution to be treated is strongly acidic or alkaline and contains IHOG, IHOG is decomposed and can not be recovered. […] This cyclization is an irreversible reaction, and therefore, it is difficult to regenerate the cyclized IHOG to reuse for the monatin production.

The nature of data set [2]: pH stability of IHOG in buffer. To be noted: 0.54 mM IHOG, 40 mM potassium phosphate buffer, 35° C. The format is physicochemical. Here is the method:
[II] pH Stability of IHOG in Buffer
The survival rate of IHOG (0.54 mM) was measured in 40 mM potassium phosphate buffer at different pH. The storage temperature was adjusted to 35° C.

The nature of data set [3]: pH stability of IHOG in amination reaction solution (without microbial cells). The data set is classed as physicochemical. On the procedure: [I] pH Stability of IHOG in Amination Reaction Solution
In order to examine the stability of IHOG in the IHOG amination solution, change of IHOG amounts with time in an IHOG amination solution was measured without adding the microbial cells. A test tube containing 1 mL of the reaction solution composed of 100 mM potassium phosphate buffer (pH 8.3), 300 mM (±)-IHOG, 600 mM DL-Ala and 1 mM pyridoxal-5′-phosphate was shaken at 37° C. for 40 hours, to perform the reaction. […] This is presumed to be attributed to the decomposition of IHOG into indole-3-pyruvic acid and pyruvic acid and the cyclization of IHOG.

For data set [4] the following is noted: cited from earlier work; for sweetness potency: relative to sucrose.

Consider `O=C(O)C(=O)CC(O)(Cc1c[nH]c2ccccc12)C(=O)O` (racemic) [IHOG, 4-(indol-3-ylmethyl)-4-hydroxy-2-oxoglutaric acid], for which the “stability in strongly acidic solution” value in data set [1] is reported as “easily cyclized”. Besides, the “stability in strongly alkaline solution” value in data set [1] (strongly alkaline solution) is “easily decomposed into indole-3-pyruvic acid and pyruvic acid spontaneously”. Besides, the “Survival rate of IHOG” value in data set [2] (pH 7, 2 hr) worked out at 97.4%; in data set [2] (pH 7, 7 hr), 90.0%; in data set [2] (pH 7, 24 hr) it was 68.4%; in data set [2] (pH 7, 48 hr), 45.6%; in data set [2] (pH 8, 2 hr), 100.6%; in data set [2] (pH 8, 7 hr), 100.1%. Besides, the “Survival rate of IHOG” value in data set [2] (pH 8, 24 hr) is 96.4%; in data set [2] (pH 8, 48 hr), 89.6%; in data set [2] (pH 9, 2 hr), 100.6%; in data set [2] (pH 9, 7 hr), 101.1%; in data set [2] (pH 9, 24 hr) it was 99.0%; in data set [2] (pH 9, 48 hr), 94.4%. Moreover, the “Survival rate of IHOG” value in data set [2] (pH 10, 2 hr) is given as 97.0%; in data set [2] (pH 10, 7 hr), 96.8%; in data set [2] (pH 10, 24 hr), 94.2%; in data set [2] (pH 10, 48 hr), 90.8%; in data set [2] (pH 11, 2 hr), 95.6%; in data set [2] (pH 11, 7 hr), 90.7%. The “Survival rate of IHOG” value is 74.8% in data set [2] (pH 11, 24 hr); 59.3% in data set [2] (pH 11, 48 hr); 81% in data set [3] (100 mM potassium phosphate buffer pH 8.3, 300 mM (±)-IHOG, 600 mM DL-Ala, 1 mM pyridoxal-5'-phosphate, 37° C., after 16 hours); 70% in data set [3] (same amination solution pH 8.3, 37° C., after 24 hours); 57% in data set [3] (same amination solution pH 8.3, 37° C., after 40 hours).
Turning to `N[C@H](C[C@](O)(Cc1c[nH]c2ccccc12)C(=O)O)C(=O)O` (single isomer, unassigned) [(2R, 4R)-isomer], in data set [4] (comparison of the monatin isomers, listed as (2R, 4R)-monatin), the “sweetness rank among four optical isomers of monatin” value was “the isomer having the highest sweetness among four optical isomers of monatin; also recorded: highest sweetness potency among monatin isomers”. In addition, in data set [4], the sweetness potency entry was “hundreds of times to thousands of times stronger than sucrose”.
In the case of `N[C@H](C[C@@](O)(Cc1c[nH]c2ccccc12)C(=O)O)C(=O)O` (single isomer, unassigned) [(2R, 4S)-isomer], the sweetness potency entry in data set [4] is “hundreds of times to thousands of times stronger than sucrose”.
As to `N[C@@H](C[C@](O)(Cc1c[nH]c2ccccc12)C(=O)O)C(=O)O` (single isomer, unassigned) [(2S, 4R)-isomer], the sweetness potency result in data set [4] is given as “hundreds of times to thousands of times stronger than sucrose”.
Turning to `NC(CC(O)(Cc1c[nH]c2ccccc12)C(=O)O)C(=O)O` (single isomer, unassigned) [(2S, 4S)-isomer], in data set [4], the sweetness potency result was “hundreds of times to thousands of times stronger than sucrose”.
Regarding `NC(CC(O)(Cc1c[nH]c2ccccc12)C(=O)O)C(=O)O` (centres unmarked) [Monatin], the “stability in strongly acidic solution” value in data set [1] was “partially decomposed into lactam and lactone”. The sweetness potency result in data set [4] is given as “dozens to thousands of times stronger than that of sucrose”.
